Experimental data reported in patent publication US12479843B2, “Spiro ring-containing quinazoline compounds” (WIGEN BIOMEDICINE TECHNOLOGY (SHANGHAI) CO., LTD., priority 2019, dated 2025).

test system: pERK level in H358 cells; test: pERK and ERK protein content assay in H358 cells (ELISA); type: cell-based; details: Homo sapiens, NCI-H358, compound 1 μM, 24 h, pERK/ERK ratio compared with DMSO group, read-out: Inhibition rate (%) of pERK level
Outline: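 Percent inhibition of pERK relative to DMSO, from the ELISA pERK/ERK ratio in lysed H358 cells. Compound applied at 1 μM for 24 h after one day of growth.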

| Structure (SMILES) | inhibition at 1 µM |
| --- | --- |
| C=C(F)C(=O)N1CC2(CCN(c3nc(N4CCC(N5CCOCC5)CC4)nc4c(OCC(F)(F)F)c(-c5c(C)ccc6[nH]ncc56)c(C5CC5)cc34)CC2)C1 [Compound 149] | 50 to 90% |
| C=CC(=O)N1CC2(CCN(c3nc(OC4CN5CCC4CC5)nc4c(OCC(F)(F)F)c(-c5c(C)ccc6[nH]ncc56)c(C5CC5)cc34)CC2)C1 (stereo not shown) [Compound 150] | > 90% |
| C=CC(=O)N1CC2(CCN(c3nc(OC4CCN(CCOC)CC4)nc4c(N(C)CC(F)(F)F)c(-c5c(C)ccc6[nH]ncc56)c(C5CC5)cc34)CC2)C1 [Compound 7] | 50 to 90% |
| C=CC(=O)N1CC2(CCN(c3nc(N4CC(N5CCC5)C4)nc4c(OCC(F)(F)F)c(-c5c(C)ccc6[nH]ncc56)c(C(=C)C)cc34)CC2)C1 [Compound 320] | > 90% |
| C=CC(=O)N1CC2(CCN(c3nc(OC4CCS(=O)(=O)CC4C)nc4c(OCC(F)(F)F)c(-c5c(C)ccc6[nH]ncc56)c(C5CC5)cc34)CC2)C1 (stereo not shown) [Compound 316] | > 90% |
| C=CC(=O)N1CC2(CCN(c3nc(N4CC5(CC(F)C5)C4)nc4c(OCC(F)(F)F)c(-c5c(C)ccc6[nH]ncc56)c(C5CC5)cc34)CC2)C1 [Compound 284] | > 90% |
| C=CC(=O)N1CC2(CCN(c3nc(N4CC5(C4)[C@H](O)CCN5C)nc4c(OCC(F)(F)F)c(-c5c(C)ccc6[nH]ncc56)c(C5CC5)cc34)CC2)C1 [Compound 272] | > 90% |
| C=CC(=O)N1CC2(CCN(c3nc(OC4CC5(CCN(C6COC6)CC5)C4)nc4c(OCC(F)(F)F)c(-c5c(C)ccc6[nH]ncc56)c(C5CC5)cc34)CC2)C1 [Compound 133] | > 90% |
| C=C(F)C(=O)N1CC2(CCN(c3nc(N4CC5(COC5)C4)nc4c(OCC(F)(F)F)c(-c5c(C)ccc6[nH]ncc56)c(C5CC5)cc34)CC2)C1 [Compound 68] | 50 to 90% |
| C=CC(=O)N1CC2(CCN(c3nc(N4CC5(C4)CN(C4COC4)C5)nc4c(OCC(F)(F)F)c(-c5c(C)ccc6[nH]ncc56)c(C5CC5)cc34)CC2)C1 [Compound 158] | > 90% |
| C=CC(=O)N1CC2(CCN(c3nc(N(C)CCN4CC(F)C4)nc4c(OCC(F)(F)F)c(-c5c(C)ccc6[nH]ncc56)c(C5CC5)cc34)CC2)C1 [Compound 228] | > 90% |
| C=CC(=O)N1CC2(CCN(c3nc(N4CC(N5C[C@H](O)C[C@H]5C)C4)nc4c(OCC(F)(F)F)c(-c5c(C)ccc6[nH]ncc56)c(C5CC5)cc34)CC2)C1 [Compound 260] | > 90% |
| C=C(F)C(=O)N1CC2(CCN(c3nc(OC4CCN(CCOC)CC4)nc4c(OCC(F)(F)F)c(-c5c(F)cccc5F)c(C5CC5)cc34)CC2)C1 [Compound 54] | > 90% |
| C=CC(=O)N1CC2(CCN(c3nc(N4CC(N5C[C@H](F)[C@H](OC)C5)C4)nc4c(OCC(F)(F)F)c(-c5c(C)ccc6[nH]ncc56)c(C5CC5)cc34)CC2)C1 [Compound 264] | > 90% |
| C=CC(=O)N1CC2(CCN(c3nc(N4CC5(CCN(C)C5)C4)nc4c(OCC(F)(F)F)c(-c5c(C)ccc6[nH]ncc56)c(C5CC5)cc34)CC2)C1 [Compound 73] | > 90% |
| C=C(F)C(=O)N1CC2(CCN(c3nc(OC4CCN(C5COC5)CC4)nc4c(OCC(F)(F)F)c(-c5c(C)ccc6[nH]ncc56)c(C5CC5)cc34)CC2)C1 [Compound 62] | > 90% |
| C=CC(=O)N1CC2(CCN(c3nc(OC4CCN(CCOC)CC4)nc4c(OCC(F)(F)F)c(-c5c(C)ccc6cc[nH]c(=O)c56)c(C5CC5)cc34)CC2)C1 [Compound 41] | > 90% |
| C=C(F)C(=O)N1CC2(CCN(c3nc(OC4CC5(C4)CN(C4COC4)C5)nc4c(OCC(F)(F)F)c(-c5c(C)ccc6[nH]ncc56)c(C5CC5)cc34)CC2)C1 [Compound 128] | > 90% |
| C=CC(=O)N1CC2(CCN(c3nc(N4CC(N5CCC(C)(C)CC5)C4)nc4c(OCC(F)(F)F)c(-c5c(C)ccc6[nH]ncc56)c(C5CC5)cc34)CC2)C1 [Compound 269] | > 90% |
| C=CC(=O)N1CC2(CCN(c3nc(N4CC[C@@H](N5CC[C@@H](OC)C5)C4)nc4c(OCC(F)(F)F)c(-c5c(C)ccc6[nH]ncc56)c(C5CC5)cc34)CC2)C1 [Compound 198] | > 90% |

test system: H358 cells; test: Antiproliferative activity against H358 cells (Cell Titer Glow, ultra-low attachment plate); type: cell-based; details: Homo sapiens, NCI-H358, 72 h, 96-well ultra-low attachment plate, three days after addition of compound, Cell Titer Glow
Protocol: 2500 H358 cells were seeded in a 96-well ultra-low attachment plate (corning, 7007). After one day of growth, a serially diluted compound (a maximum concentration of 5 μM, 5-fold dilution, a total of five doses) was added. Three days after the addition of the compound, Cell Titer Glow (Promega, G9681) was added to evaluate pellet growth, and the IC50 value was calculated.

| Structure (SMILES) | IC50 |
| --- | --- |
| C=C(F)C(=O)N1CC2(CCN(c3nc(N4CCC(N5CCOCC5)CC4)nc4c(OCC(F)(F)F)c(-c5c(C)ccc6[nH]ncc56)c(C5CC5)cc34)CC2)C1 [Compound 149] | 300 to 1000 nM |
| C=CC(=O)N1CC2(CCN(c3nc(OC4CN5CCC4CC5)nc4c(OCC(F)(F)F)c(-c5c(C)ccc6[nH]ncc56)c(C5CC5)cc34)CC2)C1 (stereo not shown) [Compound 150] | < 300 nM |
| C=CC(=O)N1CC2(CCN(c3nc(OC4CCN(CCOC)CC4)nc4c(N(C)CC(F)(F)F)c(-c5c(C)ccc6[nH]ncc56)c(C5CC5)cc34)CC2)C1 [Compound 7] | 300 to 1000 nM |
| C=CC(=O)N1CC2(CCN(c3nc(OC4CC5(CCN(C6COC6)CC5)C4)nc4c(OCC(F)(F)F)c(-c5c(C)ccc6[nH]ncc56)c(C5CC5)cc34)CC2)C1 [Compound 133] | < 300 nM |
| C=C(F)C(=O)N1CC2(CCN(c3nc(N4CC5(COC5)C4)nc4c(OCC(F)(F)F)c(-c5c(C)ccc6[nH]ncc56)c(C5CC5)cc34)CC2)C1 [Compound 68] | 300 to 1000 nM |
| C=CC(=O)N1CC2(CCN(c3nc(N4CC5(C4)CN(C4COC4)C5)nc4c(OCC(F)(F)F)c(-c5c(C)ccc6[nH]ncc56)c(C5CC5)cc34)CC2)C1 [Compound 158] | < 300 nM |
| C=CC(=O)N1CC2(CCN(c3nc(N(C)CCN4CC(F)C4)nc4c(OCC(F)(F)F)c(-c5c(C)ccc6[nH]ncc56)c(C5CC5)cc34)CC2)C1 [Compound 228] | < 300 nM |
| C=CC(=O)N1CC2(CCN(c3nc(N4CC(N5C[C@H](O)C[C@H]5C)C4)nc4c(OCC(F)(F)F)c(-c5c(C)ccc6[nH]ncc56)c(C5CC5)cc34)CC2)C1 [Compound 260] | < 300 nM |
| C=C(F)C(=O)N1CC2(CCN(c3nc(OC4CCN(CCOC)CC4)nc4c(OCC(F)(F)F)c(-c5c(F)cccc5F)c(C5CC5)cc34)CC2)C1 [Compound 54] | < 300 nM |
| C=CC(=O)N1CC2(CCN(c3nc(N4CC5(CCN(C)C5)C4)nc4c(OCC(F)(F)F)c(-c5c(C)ccc6[nH]ncc56)c(C5CC5)cc34)CC2)C1 [Compound 73] | < 300 nM |
| C=C(F)C(=O)N1CC2(CCN(c3nc(OC4CCN(C5COC5)CC4)nc4c(OCC(F)(F)F)c(-c5c(C)ccc6[nH]ncc56)c(C5CC5)cc34)CC2)C1 [Compound 62] | < 300 nM |
| C=CC(=O)N1CC2(CCN(c3nc(OC4CCN(CCOC)CC4)nc4c(OCC(F)(F)F)c(-c5c(C)ccc6cc[nH]c(=O)c56)c(C5CC5)cc34)CC2)C1 [Compound 41] | < 300 nM |
| C=C(F)C(=O)N1CC2(CCN(c3nc(OC4CC5(C4)CN(C4COC4)C5)nc4c(OCC(F)(F)F)c(-c5c(C)ccc6[nH]ncc56)c(C5CC5)cc34)CC2)C1 [Compound 128] | < 300 nM |
| C=CC(=O)N1CC2(CCN(c3nc(N4CC[C@@H](N5CC[C@@H](OC)C5)C4)nc4c(OCC(F)(F)F)c(-c5c(C)ccc6[nH]ncc56)c(C5CC5)cc34)CC2)C1 [Compound 198] | < 300 nM |

Second part, the compound after the results:

| IC50 | Structure (SMILES) |
| --- | --- |
| < 300 nM | C=CC(=O)N1CC2(CCN(c3nc(N4CC(N5CCC5)C4)nc4c(OCC(F)(F)F)c(-c5c(C)ccc6[nH]ncc56)c(C(=C)C)cc34)CC2)C1 [Compound 320] |
| < 300 nM | C=CC(=O)N1CC2(CCN(c3nc(OC4CCS(=O)(=O)CC4C)nc4c(OCC(F)(F)F)c(-c5c(C)ccc6[nH]ncc56)c(C5CC5)cc34)CC2)C1 (stereo not shown) [Compound 316] |
| < 300 nM | C=CC(=O)N1CC2(CCN(c3nc(N4CC5(CC(F)C5)C4)nc4c(OCC(F)(F)F)c(-c5c(C)ccc6[nH]ncc56)c(C5CC5)cc34)CC2)C1 [Compound 284] |
| < 300 nM | C=CC(=O)N1CC2(CCN(c3nc(N4CC5(C4)[C@H](O)CCN5C)nc4c(OCC(F)(F)F)c(-c5c(C)ccc6[nH]ncc56)c(C5CC5)cc34)CC2)C1 [Compound 272] |
| < 300 nM | C=CC(=O)N1CC2(CCN(c3nc(N4CC(N5C[C@H](F)[C@H](OC)C5)C4)nc4c(OCC(F)(F)F)c(-c5c(C)ccc6[nH]ncc56)c(C5CC5)cc34)CC2)C1 [Compound 264] |
| < 300 nM | C=CC(=O)N1CC2(CCN(c3nc(N4CC(N5CCC(C)(C)CC5)C4)nc4c(OCC(F)(F)F)c(-c5c(C)ccc6[nH]ncc56)c(C5CC5)cc34)CC2)C1 [Compound 269] |
